Experimental data published in PubChem BioAssay (NCI).
Where “and” joins values, the source holds several entries; their conditions need not be identical. Equal entries are not always repeated.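 Each compound was tested at five concentrations against cells in 96-well plates for 48 hours. At the GI50, growth is halved. TGI marks complete inhibition of growth.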

What was measured:
Assay in all cases: growth of human tumour cells (NCI), 48 h
[1] = system: T-47D breast
[2] = system: MDA-MB-231 breast
[3] = system: MCF7 breast
[4] = system: SW-620 colon
[5] = system: NCI/ADR-RES ovarian
[6] = system: BT-549 breast

Compound	TGI [1]	TGI [2]	TGI [3]	TGI [4]	TGI [5]	TGI [6]	GI50 [1]	GI50 [2]	GI50 [3]	GI50 [4]	GI50 [5]	GI50 [6]
c1ccc2c(c1)-c1ccccc1C2N1CC2CCC(CC2)C1	43.3 µM	37.4 µM	32.7 µM	49.1 µM	39.5 µM	47.9 µM						
COc1cccc(-c2nc3sccn3c2-c2ccnc(NCCNS(=O)(=O)c3ccccc3)c2)c1	4.96 µM	> 100 µM	> 100 µM	> 100 µM	23.9 µM	8.67 µM	0.776 µM	3.81 µM	3.14 µM	4.3 µM	2.66 µM	2.29 µM
CCOc1ccc(Nc2nc(-c3ccc4c(c3)NC(=O)CO4)cs2)cc1	10.4 µM	> 100 µM	23.3 µM	> 100 µM	> 100 µM	20.7 µM	1.94 µM	21.1 µM	3.18 µM	19.6 µM	4.12 µM	2.56 µM
O=S(=O)(c1ccc(N=C2NN=C(c3c[nH]c4ccccc34)CS2)cc1)N1CCOCC1	78.6 µM	> 100 µM	> 100 µM	> 100 µM	> 100 µM	11.3 µM	3.56 µM	45.3 µM	4.31 µM	77.2 µM	20.6 µM	2.86 µM
Cc1occc1C(=S)Nc1ccc(Cl)c(/C=N/OC(C)C)c1	> 41.6 µM	32.6 µM	> 51.6 µM	52.3 µM	> 58 µM	36.5 µM						
CN1CCCCCC(=N\O)/C(=N/O)CCCCC1		> 100 µM	> 100 µM	> 100 µM	> 100 µM	> 100 µM						
COc1ccc(-c2ccc(/C=N/n3c(COc4ccc(Cl)cc4Cl)nn(CN4CCN(C)CC4)c3=S)o2)c([N+](=O)[O-])c1	53.2 µM	> 100 µM	29.8 µM		45.5 µM		11.7 µM	28.9 µM	10 µM		18.1 µM	
NC(=N\N=C/c1cccc([N+](=O)[O-])c1)/C(N)=N\N=C/c1cccc([N+](=O)[O-])c1	> 100 µM	> 100 µM	> 100 µM	> 100 µM	> 100 µM		> 100 µM	> 100 µM	> 100 µM	> 100 µM	> 100 µM	
CCCN1CCN(c2ccc3nc(-c4ccc5nc(-c6cc(OC)ccc6OC)[nH]c5c4)[nH]c3c2)CC1	54.1 µM	3.27 µM	3.82 µM	3.57 µM	4.29 µM	36.1 µM	21.6 µM	1.74 µM	1.8 µM	1.86 µM	1.99 µM	15.7 µM
O=C([O][Hg][CH2]C1COCC([CH2][Hg][O]C(=O)c2ccccc2)O1)c1ccccc1 (configuration not stated)		45.6 µM	14.2 µM	3.32 µM	61.6 µM	31.2 µM		19.4 µM	1.25 µM	1.54 µM	21.1 µM	17.3 µM
Cn1nc(-c2ccccc2)nc1[N+](=O)[O-]	> 10 µM	> 10 µM		> 10 µM	> 10 µM	> 10 µM						
O=C(Nc1cc[c]([Sb](=[O])([OH])[OH])cc1)c1ccccc1	> 100 µM	> 100 µM		> 100 µM	> 100 µM	> 100 µM	> 100 µM	> 100 µM		> 100 µM	> 100 µM	> 100 µM
COc1ccc(C2=C(c3ccc(OC)c(OC)c3)C(=O)OC2)cc1	> 91.8 µM		> 48.8 µM	> 100 µM	1.12 µM	> 100 µM	1.66 µM	0.682 µM			< 0.01 µM	3.55 µM
Cc1cccc(Cl)c1NC(=O)/C=C/c1ccccc1	> 100 µM	> 100 µM	> 100 µM	> 100 µM		> 100 µM						
COc1ccc2c(CN3CCC[C@H]3C(=O)O)cc3cc4c(cc3c2c1)OCO4	> 100 µM	> 100 µM	62.3 µM	70.4 µM	> 100 µM	43.3 µM	20 µM	23.5 µM	13.5 µM	5.15 µM	23.8 µM	15.7 µM
NC(=O)c1ccc2c(-c3ccnc(NCCCO)n3)c(-c3ccc(F)cc3)nn2c1	> 25 µM	> 25 µM	> 25 µM	> 25 µM	> 25 µM	> 25 µM	> 25 µM	> 25 µM	> 16.9 µM	> 25 µM	> 25 µM	> 25 µM
O=C(CC12CC3CC(CC(C3)C1)C2)NCCOCCOCCOCCNC(=O)c1cc2c(o1)C(=O)c1ccccc1C2=O	5.86 µM	9.81 µM	2.73 µM	4.61 µM	7.65 µM	2.68 µM	1.74 µM	2.43 µM	0.808 µM	1.68 µM	2.47 µM	1.33 µM
O=C1c2cc([N+](=O)[O-])ccc2-c2cccc(F)c21	66.1 µM	> 100 µM	> 100 µM	> 100 µM	> 100 µM	> 100 µM						
COc1cc2c(Oc3ccc4[nH]c(C)cc4c3F)ccnc2cc1OCC1(N)CC1	28.5 µM	4.61 µM	24.6 µM	11.8 µM	> 100 µM	3.96 µM	3.64 µM	1.8 µM	0.484 µM	0.757 µM	2.31 µM	1.3 µM
O=C(Nc1ccc(F)cc1F)c1cc(Br)ccc1O	7.19 µM	7.95 µM	> 100 µM	55.9 µM	18.2 µM	5.51 µM	1.81 µM	2.26 µM	2.56 µM	3.06 µM	2.86 µM	1.99 µM
O=C(N/N=C/c1ccccc1Cl)c1ccccc1Nc1ccnc(C(F)(F)F)c1	6.41 µM	6.94 µM	4.52 µM	14.5 µM	9.32 µM	7.13 µM	1.33 µM	1.93 µM	0.706 µM	1.53 µM	2.16 µM	1.77 µM
O=CN1N=C(c2ccc(Cl)cc2)CC1c1cccc(Nc2ccnc3cc(Cl)ccc23)c1 (configuration not stated)	17.7 µM	39.2 µM	16 µM	24.2 µM	> 100 µM	15.4 µM	0.817 µM	2.74 µM	0.866 µM	1.61 µM	0.784 µM	1.78 µM

Compound	TGI [1]	TGI [2]	TGI [3]	TGI [4]	TGI [5]	TGI [6]	GI50 [1]	GI50 [2]	GI50 [3]	GI50 [4]	GI50 [5]	GI50 [6]
CCN=c1cc2sc3cc(NCC)c(C)cc3nc-2cc1C	10.5 µM	11.1 µM	0.937 µM	12.8 µM	7.31 µM	19.9 µM	0.58 µM	0.334 µM	0.242 µM	0.694 µM	1.77 µM	2.87 µM
COc1ccc2c(c1)OC1=C(C(=O)OC1)C2c1cc(OC)c(OC)c(OC)c1 (configuration not stated)	> 100 µM	> 100 µM	> 100 µM	> 100 µM	> 100 µM	> 100 µM	0.489 µM	1.3 µM	0.35 µM	0.334 µM	0.325 µM	1.29 µM
Nc1cc(-c2cccc(OC(F)(F)F)c2)nc2ccc(N3CCCC3)cc12	92.4 µM	7.26 µM and > 38.6 µM and 56.9 µM	17.2 µM and > 100 µM	22.1 µM and > 100 µM	20 µM and > 100 µM	> 100 µM	18.8 µM	0.0385 µM and 0.0353 µM and 0.0356 µM	0.037 µM and 0.036 µM and 0.0354 µM	0.0435 µM and 0.0413 µM and 0.0366 µM	0.0362 µM and 0.0363 µM and 0.0324 µM	0.208 µM and 0.182 µM and 0.1 µM
O=C1NC(=S)NC(=O)C1=Cc1cccc2cc3ccccc3cc12	3.86 µM	3.69 µM		> 25.2 µM	5.89 µM	3.33 µM						
Cc1cc(-c2nnc(N)nc2-c2ccc(F)cc2)cc(Cl)n1	> 100 µM	> 100 µM	> 100 µM	> 100 µM	> 100 µM	> 100 µM	28.3 µM	70.2 µM	> 100 µM	> 100 µM	57.4 µM	58.1 µM
COc1ccc(-c2nc3ncccn3c2/C=C/C(=O)c2cc(OC)c(OC)c(OC)c2)cc1	14.9 µM	17.2 µM	3.32 µM	3.94 µM	4.86 µM	5.92 µM	2.53 µM	2.73 µM	1.14 µM	1.75 µM	1.56 µM	1.45 µM
Cc1cc2cc3c(C)cc(=O)oc3c(C)c2o1	> 100 µM	> 100 µM	> 100 µM	> 100 µM	> 100 µM	> 100 µM						
O=[N+]([O-])c1ccc(N=Nc2c(O)ccc3ccccc23)cc1	> 100 µM	> 100 µM	> 100 µM	> 100 µM		96.1 µM and > 100 µM						30.3 µM and > 100 µM
C=CCC(C(=O)O)c1ccccc1 (configuration not stated)	> 100 µM	> 100 µM	> 100 µM	> 100 µM	> 100 µM	> 100 µM						
C=CCN1C=CC(=O)[C@H](O[Si](C)(C)C(C)(C)C)[C@@H]1/C=C/c1ccccc1	17 µM	29.8 µM	21.9 µM	29.3 µM	26.8 µM	35 µM	4.04 µM	14.6 µM	8.77 µM	14.5 µM	13.3 µM	16 µM
Cc1ccc(C(=O)C(Cl)C(Cl)c2ccc(C)cc2)cc1 (configuration not stated)	4.86 µM	16.1 µM	18.6 µM	6.32 µM	6.15 µM	9.2 µM						
O=c1[nH]ccc2nc(N3CCC(O)CC3)nc(Nc3cccc(C(F)(F)F)c3)c12	26.1 µM	> 100 µM	12.7 µM	12.9 µM	7.33 µM	4.34 µM	3.11 µM	12.2 µM	2.84 µM	1.91 µM	2.37 µM	1.6 µM
C=CCN(CC=C)C(=O)c1cc(C)nc2c1c(=O)n(-c1ccccc1)c(=O)n2CC(O)CN1CCN(c2ncccn2)CC1 (configuration not stated)	> 100 µM	> 100 µM	> 100 µM	> 100 µM	> 100 µM		> 100 µM	> 100 µM	33.3 µM	> 100 µM	> 100 µM	
CC(C)CNc1nc(-c2ccccc2)nc2ccccc12	> 100 µM		44.4 µM		31.4 µM		21.6 µM		18.6 µM		13.4 µM	
COc1cc2cc(C(=O)Nc3cc(N)c4ccccc4c3CCCl)[nH]c2c(OC)c1OC	0.237 µM		0.374 µM	> 18.3 µM	1.91 µM	0.804 µM	0.0372 µM		0.00869 µM	0.016 µM	0.0329 µM	0.121 µM
Cc1ccc(-c2nc(N)nc3c2nnn3Cc2cccc(CO[C@H]3CCOC3)n2)o1		> 100 µM	> 100 µM	> 100 µM	> 100 µM	> 100 µM		> 100 µM	> 100 µM	> 100 µM	> 100 µM	82 µM
COc1c(Cl)c2c(c(OC)c1OC)-c1ccc(SC)c(=O)cc1[C@@H](NC(=O)OCC(F)(F)F)CC2		3.24 µM	> 100 µM	> 100 µM		0.956 µM		< 0.01 µM	< 0.01 µM	< 0.01 µM	0.0182 µM	< 0.01 µM
Cc1cc(N2CCN(c3ccnc4cc(Cl)ccc34)CC2)nc(NC2CCCCC2)n1	4.7 µM	4.09 µM	3.47 µM	4.35 µM	3.97 µM	3.28 µM	1.89 µM	2 µM	1.57 µM	1.87 µM	1.91 µM	1.66 µM
CN(C)C1CCN(C(=O)c2ccc(NC(=O)Nc3ccc(-c4nc(N5CCOCC5)nc(N5CCOCC5)n4)cc3)cc2)CC1	0.0345 µM and 0.0176 µM and 0.0884 µM	1.71 µM and 2.5 µM and 0.286 µM	2.5 µM and > 10 µM		> 100 µM	0.239 µM and 0.206 µM and 0.635 µM	< 0.01 µM and 0.00386 µM and 0.0056 µM	< 0.0115 µM and 0.0128 µM and 0.0168 µM	0.00665 µM and 0.00604 µM	0.0346 µM and 0.0689 µM and 0.03 µM	29.4 µM and 4.87 µM	0.018 µM and 0.0199 µM and 0.0434 µM
COC(=O)c1c2c(c(C)[n+]([O-])c1C)C(=O)C=C(NCc1ccc(OC)cc1)C2=O	4.18 µM	5.41 µM	2.14 µM	4.08 µM	4.85 µM	15.8 µM	0.994 µM	0.959 µM	0.72 µM	1.08 µM	1.03 µM	4.29 µM
c1cc(OCCN2CCCCC2)ccc1CNc1ccc2nc(CCC3CCCCC3)[nH]c2c1	4.52 µM	3.02 µM	4.26 µM	3.84 µM	5.74 µM	3.87 µM	1.71 µM	1.58 µM	1.7 µM	1.82 µM	2.21 µM	1.71 µM
